According to US20250282749A1 (Tango Therapeutics, Inc., priority 2022, published 2025):

Assays:
Type in all cases: cell-based
[1] = test system: HAP1 MTAP-deleted cell line; assay: viability assay for the MTAP-deleted cell line; details: Homo sapiens
[2] = test system: PRMT5 (SDMA) in HAP1 MTAP-deleted cell line; assay: SDMA in-cell western assay, HAP1 MTAP-deleted cell line; details: for IC50 / IC90: Homo sapiens, SDMA in-cell western, HAP1 MTAP-deleted (MTAP-null) cell line; for Hap1 MTAP intact/deleted ratio: ratio of SDMA in-cell western IC50 in HAP1 MTAP-intact to IC50 in HAP1 MTAP-deleted cell line
Description: (§1) HAP1 MTAP-intact is a cell line in which endogenous levels of MTAP are expressed, and HAP1 MTAP-deleted is an MTAP-null cell line.

[3] = test system: PRMT5 (SDMA) in HAP1 MTAP-intact cell line; assay: SDMA in-cell western assay, HAP1 MTAP-intact cell line; details: Homo sapiens, HAP1 MTAP-intact cell line (endogenous MTAP), read-out: Hap 1 MTAP intact IC50
Description: as §1

| IC50 [2] [nM] | IC90 [2] [nM] | IC50 [3] [nM] | Compound | IC50 [1] [nM] | Hap1 MTAP intact/deleted ratio [2] |
| --- | --- | --- | --- | --- | --- |
| 5 to 50 | 75 to 125 | > 50 | Cc1cccc([C@H]2CN(C(=O)C3(C(F)(F)F)CC3)[C@H](C)CN2C(=O)C(=O)Nc2cnc(N)c(C)c2)c1 [Compound 30, N-(6-amino-5-methylpyridin-3-yl)-2-((2S,5R)-5-methyl-2-(m-tolyl)-4-(1-(trifluoromethyl)cyclopropanecarbonyl)piperazin-1-yl)-2-oxoacetamide] | < 100 | C (an IC50 ratio of less than 15 fold) |
| < 5 | > 125 | > 50 | Cc1cc(NC(=O)C(=O)N2C[C@@H](C)N(C(=O)C3(C)CC3)C[C@@H]2c2ccsc2)cnc1N [Compound 31, N-(6-amino-5-methyl-3-pyridyl)-2-[(2S,5R)-5-methyl-4-(1-methylcyclopropanecarbonyl)-2-(3-thienyl)piperazin-1-yl]-2-oxo-acetamide] | < 100 | B (an IC50 ratio greater than or equal to 15 fold but lower than 30 fold) |
| 5 to 50 | > 125 | > 50 | CCc1cc(NC(=O)C(=O)N2C[C@@H](C)N(CC(C)C)C[C@@H]2c2ccccc2)cnc1N [Compound 32, N-(6-amino-5-ethylpyridin-3-yl)-2-((2S,5R)-4-isobutyl-5-methyl-2-phenylpiperazin-1-yl)-2-oxoacetamide] | < 100 | A (an IC50 ratio greater than or equal to 30 fold) |
| < 5 | < 75 | 5 to 50 | CCc1cc(NC(=O)C(=O)N2C[C@@H](C)N(C(=O)C(C)(C)C)C[C@@H]2c2ccc(F)cc2)cnc1N [Compound 33, N-(6-amino-5-ethylpyridin-3-yl)-2-((2S,5R)-2-(4-fluorophenyl)-5-methyl-4-pivaloylpiperazin-1-yl)-2-oxoacetamide] | < 100 | C (an IC50 ratio of less than 15 fold) |
| 5 to 50 | > 125 | > 50 | Cc1cc(NC(=O)C(=O)N2C[C@@H](C)N(C(=O)C3(C)CCN(C)C3)C[C@@H]2c2ccccc2)cnc1N (stereo partly drawn) [Compound 34] | 100 to 1000 | B (an IC50 ratio greater than or equal to 15 fold but lower than 30 fold) |
| 5 to 50 | > 125 | > 50 | C[C@@H]1CN(C(=O)C(=O)Nc2cncc3cn[nH]c23)[C@@H](c2ccccc2)CN1C(=O)OC(C)(C)C [Compound 35, tert-butyl (2R,5S)-2-methyl-4-[2-oxo-2-(1H-pyrazolo[4,3-c]pyridin-7-ylamino)acetyl]-5-phenyl-piperazine-1-carboxylate] | < 100 | A (an IC50 ratio greater than or equal to 30 fold) |
| < 5 | < 75 | > 50 | CCc1cc(NC(=O)C(=O)N2C[C@@H](C)N(C(=O)C(C)(C)CN(C)C)C[C@@H]2c2ccccc2)cnc1N [Compound 37] | < 100 | A (an IC50 ratio greater than or equal to 30 fold) |
| 5 to 50 | 75 to 125 | > 50 | Cc1cc(NC(=O)C(=O)N2C[C@@H](C)N(C(=O)C3(C(F)(F)F)CC3)C[C@@H]2c2ccc(F)c(F)c2)cnc1N [Compound 38, N-(6-amino-5-methylpyridin-3-yl)-2-((2S,5R)-2-(3,4-difluorophenyl)-5-methyl-4-(1-(trifluoromethyl)cyclopropanecarbonyl)piperazin-1-yl)-2-oxoacetamide] | < 100 | C (an IC50 ratio of less than 15 fold) |
| 5 to 50 | > 125 | > 50 | Cc1cccc([C@H]2CN(C(=O)C3(C)CC3)[C@H](C)CN2C(=O)C(=O)Nc2cnc(N)c(C)c2)c1 [Compound 40, N-(6-amino-5-methylpyridin-3-yl)-2-((2S,5R)-5-methyl-4-(1-methylcyclopropanecarbonyl)-2-(m-tolyl)piperazin-1-yl)-2-oxoacetamide] | < 100 | C (an IC50 ratio of less than 15 fold) |
| < 5 | < 75 | 5 to 50 | CCc1cc(NC(=O)C(=O)N2C[C@@H](C)N(C(=O)C(C)C)C[C@@H]2c2cccc(N3CCN(C)CC3)c2)cnc1N [Compound 41, N-(6-amino-5-ethylpyridin-3-yl)-2-((2S,5R)-4-isobutyryl-5-methyl-2-(3-(4-methylpiperazin-1-yl)phenyl)piperazin-1-yl)-2-oxoacetamide] | < 100 | C (an IC50 ratio of less than 15 fold) |
| < 5 | < 75 | > 50 | C[C@@H]1CN(C(=O)C(=O)Nc2cncc3cn[nH]c23)[C@@H](c2ccccc2)CN1CC(C)(C)C [Compound 44, 2-oxo-N-(1H-pyrazolo[4,3-c]pyridin-7-yl)-2-[(2S,5R)-4-(2,2-dimethylpropyl)-5-methyl-2-phenyl-piperazin-1-yl]acetamide] | 100 to 1000 | A (an IC50 ratio greater than or equal to 30 fold) |
| < 5 | < 75 | 5 to 50 | C[C@@H]1CN(C(=O)C(=O)Nc2cnc(N)c3cn[nH]c23)[C@@H](c2ccc(F)cc2)CN1C(=O)C(C)(C)C [Compound 46] | < 100 | C (an IC50 ratio of less than 15 fold) |
| > 50 | > 125 | > 50 | CCc1cc(NC(=O)C(=O)N2CCN(C(=O)C3(C(F)(F)F)CC3)C[C@@H]2c2ccc(F)c(Cl)c2)cnc1N [Compound 47, N-(6-amino-5-ethyl-3-pyridyl)-2-[(2S)-2-(3-chloro-4-fluoro-phenyl)-4-[1-(trifluoromethyl)cyclopropanecarbonyl]piperazin-1-yl]-2-oxo-acetamide] | > 1000 | C (an IC50 ratio of less than 15 fold) |
| 5 to 50 | 75 to 125 | > 50 | Cc1cc(NC(=O)C(=O)N2C[C@@H](C)N(C(=O)CC3(C)CC3)C[C@@H]2c2ccccc2)cnc1N [Compound 49] | 100 to 1000 | C (an IC50 ratio of less than 15 fold) |
| 5 to 50 | < 75 | > 50 | CC(=O)N1C[C@H](c2ccccc2)N(C(=O)C(=O)Nc2cnc(N)c3cn[nH]c23)C[C@H]1C [Compound 52] | < 100 | B (an IC50 ratio greater than or equal to 15 fold but lower than 30 fold) |
| 5 to 50 | < 75 | 5 to 50 | C[C@@H]1CN(C(=O)C(=O)Nc2cnc(N)c3cn[nH]c23)[C@@H](c2ccccc2)CN1C(=O)C(C)(C)CN(C)C [Compound 54, N-(4-amino-1H-pyrazolo[4,3-c]pyridin-7-yl)-2-oxo-2-[(2S,5R)-4-[3-(dimethylamino)-2,2-dimethyl-propanoyl]-5-methyl-2-phenyl-piperazin-1-yl]acetamide] | < 100 | C (an IC50 ratio of less than 15 fold) |
| 5 to 50 | 75 to 125 | > 50 | C[C@@H]1CN(C(=O)C(=O)Nc2cncc3[nH]ncc23)[C@@H](c2ccccc2)CN1C(=O)C(C)(C)C [Compound 55, 2-((2S,5R)-5-methyl-2-phenyl-4-pivaloylpiperazin-1-yl)-2-oxo-N-(1H-pyrazolo[3,4-c]pyridin-4-yl)acetamide] | < 100 | C (an IC50 ratio of less than 15 fold) |
| < 5 | < 75 | > 50 | C[C@@H]1CN(C(=O)C(=O)Nc2cnc(N)c3cn[nH]c23)[C@@H](c2ccccc2)CN1C [Compound 57] | < 100 | B (an IC50 ratio greater than or equal to 15 fold but lower than 30 fold) |
| 5 to 50 | < 75 | > 50 | CCc1cc(NC(=O)C(=O)N2C[C@@H](C)N(C(=O)C3(C)CC3)C[C@@H]2c2ccccc2)cnc1N [Compound 58, N-(6-amino-5-ethylpyridin-3-yl)-2-((2S,5R)-5-methyl-4-(1-methylcyclopropanecarbonyl)-2-phenylpiperazin-1-yl)-2-oxoacetamide] | < 100 | C (an IC50 ratio of less than 15 fold) |
| < 5 | < 75 | > 50 | C[C@@H]1CN(C(=O)C(=O)Nc2cnc(N)c(C3CC3)c2)[C@@H](c2ccc(F)c(F)c2)CN1C(=O)C1(C)CC1 [Compound 59, N-(6-amino-5-cyclopropylpyridin-3-yl)-2-((2S,5R)-2-(3,4-difluorophenyl)-5-methyl-4-(1-methylcyclopropanecarbonyl)piperazin-1-yl)-2-oxoacetamide] | < 100 | B (an IC50 ratio greater than or equal to 15 fold but lower than 30 fold) |
| < 5 | < 75 | 5 to 50 | CCc1cc(NC(=O)C(=O)N2C[C@@H](C)N(C(=O)C3(C)CC3)C[C@@H]2c2ccc(F)cc2)cnc1N [Compound 60, N-(6-amino-5-ethylpyridin-3-yl)-2-((2S,5R)-2-(4-fluorophenyl)-5-methyl-4-(1-methylcyclopropanecarbonyl)piperazin-1-yl)-2-oxoacetamide] | < 100 | C (an IC50 ratio of less than 15 fold) |
